These results are taken from PubChem BioAssay (NCI).

Test systems include EKVX NSCLC; MOLT-4 leukemia; OVCAR-3 ovarian; SK-MEL-28 melanoma; SK-OV-3 ovarian; SK-MEL-5 melanoma; SNB-75 CNS; COLO 205 colon; HCT-116 colon; HOP-92 NSCLC.
Common to all, as to assay: NCI tumour cell line growth inhibition, 48 h

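Where inhibition never reached the appropriate level, the endpoint shown equals the highest concentration tested. Otherwise, values were interpolated linearly from a five-concentration, 48-hour dose response in 96-well plates. At the TGI there is no net growth.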

Turning to `CNc1ccc(Cl)cc1S(=O)(=O)c1ccccc1[N+](=O)[O-]`, the TGI in the test with EKVX NSCLC, with MOLT-4 leukemia, in the test on OVCAR-3 ovarian, in the test with SK-MEL-28 melanoma, with SK-OV-3 ovarian and with SK-MEL-5 melanoma was over 100 µM in each case. The TGI in the test with SNB-75 CNS and with COLO 205 colon was over 100 µM each time.
With `COc1cc2cccc(N=Cc3c(Br)ccc(OC)c3OC(C)C)c2cc1OC`, the TGI in the test with EKVX NSCLC is over 100 µM; in the test on MOLT-4 leukemia, over 100 µM; in the test on OVCAR-3 ovarian, over 100 µM; in the test with SK-MEL-28 melanoma, over 100 µM; with HCT-116 colon, 96 µM; with SK-OV-3 ovarian, over 100 µM. In addition, the TGI in the test on SK-MEL-5 melanoma was over 100 µM; in the test on SNB-75 CNS, 89.3 µM; in the test on COLO 205 colon, over 100 µM.
Regarding `OC12CCCCCC1(N1CCOCC1)c1ccccc12` (stereo unspecified), the TGI in the test with MOLT-4 leukemia, in the test on OVCAR-3 ovarian, with SK-MEL-28 melanoma, in the test with HCT-116 colon, in the test with SK-OV-3 ovarian and with SK-MEL-5 melanoma was over 100 µM in each case. The TGI with SNB-75 CNS and in the test on COLO 205 colon was over 100 µM each time.
Regarding `COC(=O)CC(NC(=O)OCc1ccccc1)C(C(=O)OCc1ccccc1)C1(C)OCCO1` (stereo unspecified), the TGI was over 100 µM with EKVX NSCLC; 57.3 µM in the test with MOLT-4 leukemia; over 100 µM in the test on OVCAR-3 ovarian; over 100 µM with SK-MEL-28 melanoma; over 100 µM with HCT-116 colon; 32.7 µM with SK-MEL-5 melanoma. Besides, the TGI with SNB-75 CNS worked out at 73.2 µM; in the test on COLO 205 colon, 36.5 µM.
Regarding `CC12CC(c3ccccc3O1)C(C(=O)Nc1cccc(F)c1)C(=O)N2` (stereo unspecified), the TGI was over 100 µM with EKVX NSCLC; 54.2 µM in the test with MOLT-4 leukemia; over 100 µM in the test with OVCAR-3 ovarian; over 100 µM with SK-MEL-28 melanoma; over 100 µM in the test on HCT-116 colon; over 100 µM with SK-OV-3 ovarian. Moreover, the TGI in the test with SK-MEL-5 melanoma was 54.8 µM; in the test on COLO 205 colon it was over 100 µM.
For `c1ccc([P+](c2ccccc2)(c2ccccc2)c2ccc([P+](c3ccccc3)(c3ccccc3)c3ccccc3)cc2)cc1`, the TGI with MOLT-4 leukemia, in the test on OVCAR-3 ovarian, in the test with SK-MEL-28 melanoma, with HCT-116 colon, in the test with SK-OV-3 ovarian and in the test on SK-MEL-5 melanoma was over 100 µM in each case. Moreover, the TGI was over 100 µM in the test on SNB-75 CNS and 50.8 µM in the test on COLO 205 colon.
Consider `Cc1ccc(S(=O)(=O)N/N=C2\C3CC4CC(C3)C2C4)cc1` (stereo unspecified), for which the TGI in the test on MOLT-4 leukemia, with OVCAR-3 ovarian, with SK-MEL-28 melanoma, in the test on SK-OV-3 ovarian, with SK-MEL-5 melanoma and in the test on SNB-75 CNS was over 100 µM each time. Further, in the test on COLO 205 colon, the TGI was over 100 µM.
For the molecule `Cc1cc(S(=O)(=O)O)c(NC(=O)c2oc3cc(O)ccc3c(=O)c2C)cc1Cl`, the TGI with EKVX NSCLC, in the test on MOLT-4 leukemia, in the test on OVCAR-3 ovarian, with SK-MEL-28 melanoma, in the test with HCT-116 colon and with SK-OV-3 ovarian was over 100 µM each time. Also, the TGI in the test on SK-MEL-5 melanoma and in the test on SNB-75 CNS was over 100 µM in each case.
For the molecule `CNc1ccc(S(=O)Nc2ccccc2)cc1` (stereo unspecified), the TGI in the test with EKVX NSCLC was over 100 µM; with MOLT-4 leukemia, over 100 µM; with OVCAR-3 ovarian, over 100 µM; in the test on SK-MEL-28 melanoma, over 100 µM; in the test on HCT-116 colon, over 100 µM; with SK-MEL-5 melanoma it was 91.1 µM. In the test with COLO 205 colon, this molecule came in with a TGI of 83.5 µM.
For the molecule `c1ccc(OCCSCCCCCCCCCCSCCOc2ccccc2)cc1`, the TGI in the test on EKVX NSCLC, in the test on MOLT-4 leukemia, in the test with OVCAR-3 ovarian, in the test with SK-MEL-28 melanoma, with SK-OV-3 ovarian and in the test with SK-MEL-5 melanoma was over 100 µM each time. Also, the TGI in the test with SNB-75 CNS and in the test on COLO 205 colon was over 100 µM throughout.
As to `Nc1ncc(/C=N/O)c(NCC2(CO)CC(CCc3ccccc3)C2)n1` (stereo unspecified), the TGI is 23 µM in the test on MOLT-4 leukemia; 30.7 µM in the test with OVCAR-3 ovarian; 18 µM with HCT-116 colon; 11.9 µM with SK-MEL-5 melanoma; 30.8 µM in the test with SNB-75 CNS; 30.2 µM in the test with HOP-92 NSCLC. In the test on COLO 205 colon, the TGI is 27.2 µM.
For `[N-]=[N+]=C(C(=O)C(=[N+]=[N-])C(=O)c1ccccc1)C(=O)c1ccccc1`, the TGI in the test on EKVX NSCLC, with OVCAR-3 ovarian, in the test with SK-MEL-28 melanoma, in the test with HCT-116 colon, in the test on SK-MEL-5 melanoma and in the test on SNB-75 CNS was over 100 µM throughout. The TGI in the test on COLO 205 colon was over 100 µM.
As to `CC(=O)Nc1ccc(C(=O)N2N=C(C)/C(=C/c3ccc(O)cc3)C2=O)cc1`, the TGI in the test on EKVX NSCLC, in the test with MOLT-4 leukemia, in the test with OVCAR-3 ovarian, in the test on SK-MEL-28 melanoma, in the test on HCT-116 colon and in the test with SK-MEL-5 melanoma was over 100 µM in each case. Further, the TGI in the test on SNB-75 CNS and with COLO 205 colon was over 100 µM throughout.
